We go through 2 compounds from article PMC12715762, “Discovery of VU6052254: A Novel, Potent M1 Positive Allosteric Modulator” (ACS Chemical Neuroscience, 2025).

The term pEC50 denotes the EC50 on a negative log10 scale, so that one unit is a factor of ten. Usually solubility stands for the dissolved amount per volume that the medium holds. The low end stands for a poorly soluble substance, the high end for a readily soluble substance.

pEC50: −log10 of the molar value. In brackets after ≈: the same amount, converted by molar mass.

In one data set the target is T1, rat M1 (Rattus norvegicus, UniProt P08482).
T1 construct: expressed in transfected cells
T1 sequence (P08482 1-460): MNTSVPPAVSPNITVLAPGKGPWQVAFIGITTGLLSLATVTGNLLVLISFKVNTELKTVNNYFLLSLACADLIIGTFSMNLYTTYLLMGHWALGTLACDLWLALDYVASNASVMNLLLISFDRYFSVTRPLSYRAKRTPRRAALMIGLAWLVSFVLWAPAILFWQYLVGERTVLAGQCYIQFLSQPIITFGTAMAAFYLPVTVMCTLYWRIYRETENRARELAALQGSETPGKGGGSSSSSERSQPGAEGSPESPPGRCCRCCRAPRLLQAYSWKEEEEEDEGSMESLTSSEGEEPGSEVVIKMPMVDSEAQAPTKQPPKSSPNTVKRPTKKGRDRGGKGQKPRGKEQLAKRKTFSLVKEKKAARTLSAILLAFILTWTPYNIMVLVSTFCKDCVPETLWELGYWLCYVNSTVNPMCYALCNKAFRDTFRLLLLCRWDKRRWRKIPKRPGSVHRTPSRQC
Put plainly: M1 PAM calcium mobilization assay (rat). Format: cell-based. The following applies: for rM1 PAM AChmax (%): rat M1, % ACh max, n = 5; for pEC50: rat M1, n = 5, read-out: rM1 PAM EC50.

Data set [1] is described as follows: predicted hepatic clearance (dog). It is filed as in vitro ADME. As to conditions: dog (d). As for the experimental part: After a 5 min preincubation, the reaction was initiated by the addition of NADPH (1 mM). At selected time intervals (0, 3, 7, 15, 25, and 45 min), aliquots were taken and subsequently placed into a 96-well plate containing cold acetonitrile with internal standard (50 ng/mL carbamazepine). Plates were then centrifuged at 3000 rcf (4 °C) for 10 min, and the supernatant was transferred to a separate 96-well plate and diluted 1:1 with water for LC/MS/MS analysis. The in vitro half-life ( 1/2, min, Eq. 1), intrinsic clearance (CLint, mL/min/kg, Eq. 2), and subsequent predicted hepatic clearance (CLhep, mL/min/kg, Eq. 3) was determined employing the […]
where k represents the slope from linear regression analysis of the natural log percent remaining of a test compound as a function of incubation time […]
(2) CLint = in vitroT x mg microsomes x gram liver x kg body wt ascale-up factors: of 20 (human) or 45 (rat) […]
where Qh (hepatic blood flow, mL/min/kg) is 21 (human) or 70 (rat).
LC/MS/MS Bioanalysis of Samples from Plasma Protein Binding and Intrinsic Clearance […]
Samples were analyzed on a Thermo Electron TSQ Quantum Ultra triple quad mass spectrometer (San Jose, CA) via electrospray ionization (ESI) with two Themo Electron Accella pumps (San Jose, CA), and a Leap Technologies CTC PAL autosampler (Carrboro, NC). […]

The nature of data set [2]: solubility in simulated intestinal fluid (FaSSIF). It is filed as physicochemical.

Consider `Cn1cc2c(-c3cc(F)c(CN4Cc5ncccc5C4=O)c(F)c3)cccc2n1` [compound 1, reference compound], for which, on rat M1, the “rM1 PAM AChmax (%)” value worked out at 81% and the pEC50 is 6.40. For the same compound, in data set [1], the “Predicted CLhep” value is 5.5 mL/min/kg. Also, the concentration in solution in data set [2] (solubility) was 7 µg/mL (≈ 17.9 µM).

For `Cn1cc2c(-c3cc(F)c(CN4Cc5ncccc5C4=O)c(F)c3)ccc(C(C)(C)O)c2n1` [compound 7], on rat M1, the “rM1 PAM AChmax (%)” value stood at 94% and the pEC50 is 7.11. Further, in data set [1], the “Predicted CLhep” value is 8.0 mL/min/kg. The same compound returned a solubility in data set [2] of 11 µg/mL (≈ 24.5 µM).
